Measurements reported in patent publication US9169254B2, “Spiroimidazolone derivative” (Chugai Seiyaku Kabushiki Kaisha, priority 2009, dated 2015).

Target: T1, human PTH1 receptor (Homo sapiens, UniProt Q03431)
T1 sequence (Q03431 27-593): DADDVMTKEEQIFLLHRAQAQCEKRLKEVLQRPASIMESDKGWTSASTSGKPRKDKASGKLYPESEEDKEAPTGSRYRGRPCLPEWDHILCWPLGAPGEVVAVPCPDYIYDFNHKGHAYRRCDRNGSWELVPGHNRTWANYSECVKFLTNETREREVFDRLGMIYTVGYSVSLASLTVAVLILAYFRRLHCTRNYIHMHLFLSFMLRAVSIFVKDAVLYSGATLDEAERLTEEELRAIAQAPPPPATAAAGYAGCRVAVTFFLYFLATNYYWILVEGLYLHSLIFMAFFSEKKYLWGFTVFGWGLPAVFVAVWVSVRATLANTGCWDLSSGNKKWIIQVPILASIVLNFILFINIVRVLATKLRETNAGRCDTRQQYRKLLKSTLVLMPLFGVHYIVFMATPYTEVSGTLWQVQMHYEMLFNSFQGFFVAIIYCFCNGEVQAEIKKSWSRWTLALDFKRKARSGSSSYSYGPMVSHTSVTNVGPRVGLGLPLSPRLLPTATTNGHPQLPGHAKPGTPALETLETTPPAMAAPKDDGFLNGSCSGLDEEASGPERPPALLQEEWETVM
Assay: In vitro cAMP signal activity in HKRK-B7 cells (LLC-PK1 cells overexpressing the human PTH1 receptor)
Type: cell-based
Details: HKRK-B7 cells, compound at 1×10^−3 M, cAMP produced as percentage of that produced by hPTH(1-34) at 100 nM

| SMILES | cAMP production activity (%) | cAMP production activity (%) (0.1 µM) |
| --- | --- | --- |
| CCOc1c(N(C)c2cc(C)c(CCS(=O)(=O)N3CCC4(CC3)N=C([C@H]3CC[C@H](C)CC3)NC4=O)c(C)c2)c(=O)c1=O [Compound 1367, 3-[(3,5-Dimethyl-4-{2-[2-(4-methyl-cyclohexyl)-4-oxo-1,3,8-triaza-spiro[4.5]dec-1-ene-8-sulfonyl]-ethyl}-phenyl)-methyl-amino]-4-ethoxy-cyclobut-3-ene-1,2-dione] | 58% | – |
| Cc1cc(N(C)c2c(N)c(=O)c2=O)cc(C)c1CCS(=O)(=O)N1CCC2(CC1)N=C([C@H]1CC[C@H](C)CC1)NC2=O [Compound 1368, 3-Amino-4-[(3,5-dimethyl-4-{2-[2-(4-methyl-cyclohexyl)-4-oxo-1,3,8-triaza-spiro[4.5]dec-1-ene-8-sulfonyl]-ethyl}-phenyl)-methyl-amino]-cyclobut-3-ene-1,2-dione] | 83% | – |
| Cc1cc(N(C)c2c(N(C)C)c(=O)c2=O)cc(C)c1CCS(=O)(=O)N1CCC2(CC1)N=C([C@H]1CC[C@H](C)CC1)NC2=O [Compound 1369, 3-Dimethylamino-4-[(3,5-dimethyl-4-{2-[2-(4-methyl-cyclohexyl)-4-oxo-1,3,8-triaza-spiro[4.5]dec-1-ene-8-sulfonyl]-ethyl}-phenyl)-methyl-amino]-cyclobut-3-ene-1,2-dione] | 30% | – |
| C#C[C@H]1CC[C@@H](C2=NC3(CCN(S(=O)(=O)CCc4ccc(NC(C)=O)cc4C)CC3)C(=O)N2)CC1 [Compound 1370, N-(4-{2-[2-(4-Ethynyl-cyclohexyl)-4-oxo-1,3,8-triaza-spiro[4.5]dec-1-ene-8-sulfonyl]-ethyl}-3-methyl-phenyl)-acetamide] | – | 64% |
| Cc1cc(N(C)C(N)=O)cc(C)c1CCS(=O)(=O)N1CCC2(CC1)N=C(C1CCC(C)CC1)N/C2=N/O (stereo not drawn) [Compound 1371, 1-(4-{2-[4-[(E)-Hydroxyimino]-2-(4-methyl-cyclohexyl)-1,3,8-triaza-spiro[4.5]dec-1-ene-8-sulfonyl]-ethyl}-3,5-dimethyl-phenyl)-1-methyl-urea] | 84% | – |
| Cc1ccccc1CNS(=O)(=O)N1CCC2(CC1)N=C(C1CCC(C)CC1)NC2=O (stereo not drawn) [Compound 1372, 2-(4-Methyl-cyclohexyl)-4-oxo-1,3,8-triaza-spiro[4.5]dec-1-ene-8-sulfonic acid 2-methyl-benzylamide] | 36% | – |
| O=C1NC(C2CCCCC2)=NC12CCN(S(=O)(=O)CC(O)c1cccc3c1ccn3C[C@H](O)CO)CC2 (stereo partly drawn) [Compound 1374, 2-Cyclohexyl-8-{2-[1-((S)-2,3-dihydroxy-propyl)-1H-indol-4-yl]-2-hydroxy-ethanesulfonyl}-1,3,8-triaza-spiro[4.5]dec-1-en-4-one] | 33% | – |
| Cc1ccccc1C(=O)CS(=O)(=O)N1CCC2(CC1)N=C(C1CCCCC1)NC2=O [Compound 1375, 2-Cyclohexyl-8-(2-oxo-2-o-tolyl-ethanesulfonyl)-1,3,8-triaza-spiro[4.5]dec-1-en-4-one] | 23% | – |
| Cc1ccccc1C#CS(=O)(=O)N1CCC2(CC1)N=C(C1CCCCC1)NC2=O [Compound 1376, 2-Cyclohexyl-8-(2-o-tolyl-ethynesulfonyl)-1,3,8-triaza-spiro[4.5]dec-1-en-4-one] | 42% | – |
| O=C1NC(C2CCCCC2)=NC12CCN(S(=O)(=O)C#Cc1cccc3[nH]ccc13)CC2 [Compound 1377, 2-Cyclohexyl-8-[2-(1H-indol-4-yl)-ethynesulfonyl]-1,3,8-triaza-spiro[4.5]dec-1-en-4-one] | 35% | – |
| Cc1cc(C(=O)N(C)C)cc(C)c1CCS(=O)(=O)N1CCC2(CC1)N=C(C1CCC(CCC(F)(F)F)CC1)NC2=O (stereo not drawn) [Compound 1378, 3,5,N,N-Tetramethyl-4-(2-{4-oxo-2-[4-(3,3,3-trifluoro-propyl)-cyclohexyl]-1,3,8-triaza-spiro[4.5]dec-1-ene-8-sulfonyl}-ethyl)-benzamide] | 116% | – |
| Cc1cc(C(=O)N(C)C)cc(C)c1CCS(=O)(=O)N1CCC2(CC1)N=C(C1CCC(C)CC1)NC2=O (stereo not drawn) [Compound 1379, 3,5,N,N-tetramethyl-4-{2-[2-(4-methyl-cyclohexyl)-4-oxo-1,3,8-triaza-spiro[4.5]dec-1-ene-8-sulfonyl]-ethyl}-benzamide] | 86% | – |

Continued, values first:

| cAMP production activity (%) | cAMP production activity (%) (0.1 µM) | SMILES |
| --- | --- | --- |
| 109% | – | Cc1cc(C(=O)N2CCC(C)(O)CC2)cc(C)c1CCS(=O)(=O)N1CCC2(CC1)N=C(C1CCC(CCC(F)(F)F)CC1)NC2=O (stereo not drawn) [Compound 1380, 8-{2-[4-(4-hydroxy-4-methyl-piperidine-1-carbonyl)-2,6-dimethyl-phenyl]-ethanesulfonyl}-2-[4-(3,3,3-trifluoro-propyl)-cyclohexyl]-1,3,8-triaza-spiro[4.5]dec-1-en-4-one] |
| 102% | – | Cc1cc(C(=O)N2CCC(O)(CF)CC2)cc(C)c1CCS(=O)(=O)N1CCC2(CC1)N=C(C1CCC(CCC(F)(F)F)CC1)NC2=O (stereo not drawn) [Compound 1381, 8-{2-[4-(4-fluoromethyl-4-hydroxy-piperidine-1-carbonyl)-2,6-dimethyl-phenyl]-ethanesulfonyl}-2-[4-(3,3,3-trifluoro-propyl)-cyclohexyl]-1,3,8-triaza-spiro[4.5]dec-1-en-4-one] |
| 93% | – | Cc1cc(C(=O)N2CCC(C)(O)CC2)cc(C)c1CCS(=O)(=O)N1CCC2(CC1)N=C(C1CCC(C)CC1)NC2=O (stereo not drawn) [Compound 1382, 8-{2-[4-(4-hydroxy-4-methyl-piperidine-1-carbonyl)-2,6-dimethyl-phenyl]-ethanesulfonyl}-2-(4-methyl-cyclohexyl)-1,3,8-triaza-spiro[4.5]dec-1-en-4-one] |
| 96% | – | Cc1cc(C(=O)N2CCC(O)(CF)CC2)cc(C)c1CCS(=O)(=O)N1CCC2(CC1)N=C(C1CCC(C)CC1)NC2=O (stereo not drawn) [Compound 1383, 8-{2-[4-(4-fluoromethyl-4-hydroxy-piperidine-1-carbonyl)-2,6-dimethyl-phenyl]-ethanesulfonyl}-2-(4-methyl-cyclohexyl)-1,3,8-triaza-spiro[4.5]dec-1-en-4-one] |
| 78% | – | Cc1cc(C(=O)N2CCC(OC[C@H](O)CO)CC2)cc(C)c1CCS(=O)(=O)N1CCC2(CC1)N=C(C1CCC(CCC(F)(F)F)CC1)NC2=O (stereo partly drawn) [Compound 1384, 8-(2-{4-[4-((R)-2,3-dihydroxy-propoxy)-piperidine-1-carbonyl]-2,6-dimethyl-phenyl}-ethanesulfonyl)-2-[4-(3,3,3-trifluoro-propyl)-cyclohexyl]-1,3,8-triaza-spiro[4.5]dec-1-en-4-one] |
| 92% | – | Cc1cc(C(=O)NN)cc(C)c1CCS(=O)(=O)N1CCC2(CC1)N=C(C1CCC(CCC(F)(F)F)CC1)NC2=O (stereo not drawn) [Compound 1385, 3,5-dimethyl-4-(2-{4-oxo-2-[4-(3,3,3-trifluoro-propyl)-cyclohexyl]-1,3,8-triaza-spiro[4.5]dec-1-ene-8-sulfonyl}-ethyl)-benzoic acid hydrazide] |
| 92% | – | Cc1cc(C(=O)N2CCCN2)cc(C)c1CCS(=O)(=O)N1CCC2(CC1)N=C(C1CCC(CCC(F)(F)F)CC1)NC2=O (stereo not drawn) [Compound 1386, 8-{2-[2,6-dimethyl-4-(pyrazolidine-1-carbonyl)-phenyl]-ethanesulfonyl}-2-[4-(3,3,3-trifluoro-propyl)-cyclohexyl]-1,3,8-triaza-spiro[4.5]dec-1-en-4-one] |
| 68% | – | Cc1cc(CC(=O)N(C)C)ccc1CCS(=O)(=O)N1CCC2(CC1)N=C(C1CCC(C)CC1)NC2=O (stereo not drawn) [Compound 1387, N,N-dimethyl-2-(3-methyl-4-{2-[2-(4-methyl-cyclohexyl)-4-oxo-1,3,8-triaza-spiro[4.5]dec-1-ene-8-sulfonyl]-ethyl}-phenyl)-acetamide] |
| 59% | – | CONC(=O)Cc1ccc(CCS(=O)(=O)N2CCC3(CC2)N=C(C2CCC(C)CC2)NC3=O)c(C)c1 (stereo not drawn) [Compound 1388, N-methoxy-2-(3-methyl-4-{2-[2-(4-methyl-cyclohexyl)-4-oxo-1,3,8-triaza-spiro[4.5]dec-1-ene-8-sulfonyl]-ethyl}-phenyl)-acetamide] |
| 67% | – | Cc1cc(CN(C)C(N)=O)cc(C)c1CCS(=O)(=O)N1CCC2(CC1)N=C(C1CCC(CCC(F)(F)F)CC1)NC2=O (stereo not drawn) [Compound 1389, 1-[3,5-dimethyl-4-(2-{4-oxo-2-[4-(3,3,3-trifluoro-propyl)-cyclohexyl]-1,3,8-triaza-spiro[4.5]dec-1-ene-8-sulfonyl}-ethyl)-benzyl]-1-methyl-urea] |
| 69% | – | Cc1cc(CN(C)C(N)=O)cc(C)c1CCS(=O)(=O)N1CCC2(CC1)N=C(C1CCC(C)CC1)NC2=O (stereo not drawn) [Compound 1390, 1-(3,5-dimethyl-4-{2-[2-(4-methyl-cyclohexyl)-4-oxo-1,3,8-triaza-spiro[4.5]dec-1-ene-8-sulfonyl]-ethyl}-benzyl)-1-methyl-urea] |
| 116% | – | [2H]C([2H])([2H])N(C(N)=O)c1cc(C)c(CCS(=O)(=O)N2CCC3(CC2)N=C(c2ccc(F)c(C(F)(F)F)c2)NC3=O)c(C)c1 [Compound 1391, 1-(4-{2-[2-(4-fluoro-3-trifluoromethyl-phenyl)-4-oxo-1,3,8-triaza-spiro[4.5]dec-1-ene-8-sulfonyl]-ethyl}-3,5-dimethyl-phenyl)-1-[1,1,1-^2H3]methyl-urea] |
